From patent US7122360B1, “Polypeptides, polynucleotides and uses thereof” (University of Dundee, priority 1998, dated 2006)
“Also recorded” adds a separate entry of the source.

Key:
MAPKAP-K1a/b [1] = test: Activation of MAPKAP-K1a/b by TNF in HeLa cells; assay type: cell-based; conditions: 50 μM PD 98059, 10 μM SB 203580
Text: (§1) Cell Culture, stimulation and cell lysis.

MAPK = conditions: PC12 cells expressing high levels of the NGF receptor (Alessi et al., 1995); cited from earlier work
MSK1 [2] = test: Activation of MSK1 by TNF in HeLa cells; assay type: cell-based; conditions: 50 μM PD 98059, 10 μM SB 203580, TNF 10 ng/ml
Text: as §1

MSK1 [3] = test: NGF-induced activation of MSK1 in PC12 cells; conditions: 50 μM PD 98059, 10 μM SB 203580, NGF 30 ng/ml 15 min
MAPKAP-K1a/b [4] = test: Activation of MAPKAP-K1a/b in 293 cells; conditions: 50 μM PD 98059 or 10 μM SB 203580
MSK1 [5] = test: Activation of transfected Flag-MSK1 in 293 cells; assay type: cell-based, human; conditions: for UV-induced activation of transfected MSK1 / activation of transfected MSK1 by TPA: 50 μM PD 98059 or 10 μM SB 203580
Method: FIG. 6. Effect of mutation of MSK1 on activation by TPA and UV in 293 cells. 293 cells were transiently transfected with DNA constructs expressing Flag epitope tagged wild type MSK1, N-terminal (NT) “kinase dead” MSK1 and C-terminal (CT) “kinase dead” MSK1. […] The cells were lysed and the MSK1 was immunoprecipitated from the lysates and assayed with Crosstide.
Transfection of MSK1 into 293 cells. 293 cells were cultured on 10 cm diameter dishes and transfected with the pCMV5 vector encoding the Flag epitope tagged MSK1 constructs using a modified calcium phosphate method (Alessi et al., 1996b). 24 h post-transfection, the cells were deprived of serum for 16 h, stimulated with TPA or exposed to UV radiation, the cells were then lysed in 1 ml of ice cold Buffer A, centrifuged at 13,000×g for 5 min, and the Flag tagged MSK1 protein immunoprecipitated from aliquots of lysate (containing 25 μg protein) using 2 μg of FLAG antibody coupled to 5 (1 of Protein G-Sepharose.
Immunoprecipitates were incubated, washed and assayed for MSK1 activity as described above.

MAPKAP-K1 [6] = test: Activation of MAPKAP-K1 in SK-N-MC cells; assay type: cell-based; conditions: 50 μM PD 98059, 10 μM SB 203580
Method: FIG. 14. […] After cell lysis aliquots were assayed for either MSK1 (A), MAPKAP-K1 (B), MAPKAP-K2 (C) after their immunoprecipitation from the lysates or immunoblotted for phosphorylation of CREB and ATF1 (D).
as §1

[7] = target: cyclic AMP dependent protein kinase (Homo sapiens, UniProt P17612); conditions: 10 μM Ro 318220 (Davis et al., 1989); cited from earlier work
PKC isoforms = test: Effect of Ro 318220 on mixed PKC isoforms in vitro; assay type: biochemical; conditions: Davis et al., 1989, Alessi 1997, FIG. 9A
Method: (§2) FIG. 9. Effect of Ro 318220 on the activity of MSK1. (A) Effect of Ro 318220 on GST-MSK1 (closed circles), mixed PKC isoforms (open circles) GST-MAPKAP-K1b and MAPKAP-K2 (open triangles) in vitro. […] The error for each point is ±10%. […] The cells were lysed MAPKAP-K2 was immunoprecipitated and assayed. […] (C) as above except that 293 cells were incubated for 2 h in 32phosphate (0.1 mCi/ml) before treatment with inhibitors. Cells were then exposed to either UV radiation (200 J/m2) or left untreated (−), incubated for a further 20 min in the continued presence of inhibitors. Following cell lysis, HSP27 was immunoprecipitated from cell extracts (Cuenda et al., 1995) run on a 15% polyacrylamide gel and autoradiographed.

MAPKAP-K1a/b [8] = target: T1, MAPKAP-K1a/b (Oryctolagus cuniculus, UniProt A0A5F9C4L9); test: Effect of Ro 318220 on MAPKAP-K1a/b in vitro; assay type: biochemical; conditions: Alessi 1997, FIG. 9A
T1 construct: GST
T1 sequence (A0A5F9C4L9 1-740): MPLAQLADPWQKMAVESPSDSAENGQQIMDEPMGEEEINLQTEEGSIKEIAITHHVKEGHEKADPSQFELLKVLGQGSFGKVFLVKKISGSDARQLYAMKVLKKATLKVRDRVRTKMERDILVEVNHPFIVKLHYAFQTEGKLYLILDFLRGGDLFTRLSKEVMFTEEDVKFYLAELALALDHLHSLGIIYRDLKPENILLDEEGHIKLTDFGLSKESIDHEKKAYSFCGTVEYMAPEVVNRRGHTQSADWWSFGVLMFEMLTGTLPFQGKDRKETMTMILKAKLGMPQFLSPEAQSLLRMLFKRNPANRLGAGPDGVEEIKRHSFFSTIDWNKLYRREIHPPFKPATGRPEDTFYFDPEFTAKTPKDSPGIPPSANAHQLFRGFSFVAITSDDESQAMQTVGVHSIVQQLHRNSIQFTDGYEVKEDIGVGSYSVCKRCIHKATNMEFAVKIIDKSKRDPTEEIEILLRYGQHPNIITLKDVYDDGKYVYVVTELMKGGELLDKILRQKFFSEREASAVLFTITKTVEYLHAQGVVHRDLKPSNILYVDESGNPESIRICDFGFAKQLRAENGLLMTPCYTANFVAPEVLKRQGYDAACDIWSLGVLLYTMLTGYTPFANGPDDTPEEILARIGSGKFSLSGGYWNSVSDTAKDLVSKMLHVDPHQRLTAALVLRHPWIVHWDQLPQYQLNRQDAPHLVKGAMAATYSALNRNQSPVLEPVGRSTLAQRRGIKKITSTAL
Method: as §2

MAPKAP-K2 [9] = test: LPS-induced activation of MAPKAP-K2 in RAW 264 macrophages; assay type: cell-based, mouse; conditions: LPS 100 ng/ml 1 h, 10 μM SB 203580, 5 TM Ro 318220
MAPKAP-K2 [10] = target: T2, MAPKAP-K2 (Homo sapiens, UniProt P49137); test: Effect of Ro 318220 on MAPKAP-K2 in vitro; assay type: biochemical; conditions: even at 10 μM
T2 construct: GST; made in house; host or cells: bacteria
T2 sequence (P49137 46-400 limits assumed): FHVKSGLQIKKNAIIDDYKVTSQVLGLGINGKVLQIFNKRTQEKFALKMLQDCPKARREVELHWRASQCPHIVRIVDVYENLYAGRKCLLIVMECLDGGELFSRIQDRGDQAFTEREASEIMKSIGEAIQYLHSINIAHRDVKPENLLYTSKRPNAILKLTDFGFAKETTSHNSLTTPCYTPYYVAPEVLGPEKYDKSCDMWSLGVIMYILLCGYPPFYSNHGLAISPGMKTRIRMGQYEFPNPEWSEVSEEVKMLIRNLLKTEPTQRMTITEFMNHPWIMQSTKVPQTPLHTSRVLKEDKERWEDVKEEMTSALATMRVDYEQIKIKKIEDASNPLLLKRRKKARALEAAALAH
Method: as §2

MAPKAP-K1 [11] = test: LPS-induced activation of MAPKAP-K1 in RAW 264 macrophages; assay type: cell-based, mouse; conditions: LPS 100 ng/ml 1 h, 10 μM UO 126, 5 TM Ro 318220
MSK1 [12] = target: MSK1 (Homo sapiens, UniProt O75582); test: Effect of Ro 318220 on GST-MSK1 activity in vitro; assay type: biochemical; conditions: compared with PKC isoforms and MAPKAP-K1a/b
Sequence of MSK1 (Homo sapiens, UniProt O75582) (O75582 whole entry, canonical isoform): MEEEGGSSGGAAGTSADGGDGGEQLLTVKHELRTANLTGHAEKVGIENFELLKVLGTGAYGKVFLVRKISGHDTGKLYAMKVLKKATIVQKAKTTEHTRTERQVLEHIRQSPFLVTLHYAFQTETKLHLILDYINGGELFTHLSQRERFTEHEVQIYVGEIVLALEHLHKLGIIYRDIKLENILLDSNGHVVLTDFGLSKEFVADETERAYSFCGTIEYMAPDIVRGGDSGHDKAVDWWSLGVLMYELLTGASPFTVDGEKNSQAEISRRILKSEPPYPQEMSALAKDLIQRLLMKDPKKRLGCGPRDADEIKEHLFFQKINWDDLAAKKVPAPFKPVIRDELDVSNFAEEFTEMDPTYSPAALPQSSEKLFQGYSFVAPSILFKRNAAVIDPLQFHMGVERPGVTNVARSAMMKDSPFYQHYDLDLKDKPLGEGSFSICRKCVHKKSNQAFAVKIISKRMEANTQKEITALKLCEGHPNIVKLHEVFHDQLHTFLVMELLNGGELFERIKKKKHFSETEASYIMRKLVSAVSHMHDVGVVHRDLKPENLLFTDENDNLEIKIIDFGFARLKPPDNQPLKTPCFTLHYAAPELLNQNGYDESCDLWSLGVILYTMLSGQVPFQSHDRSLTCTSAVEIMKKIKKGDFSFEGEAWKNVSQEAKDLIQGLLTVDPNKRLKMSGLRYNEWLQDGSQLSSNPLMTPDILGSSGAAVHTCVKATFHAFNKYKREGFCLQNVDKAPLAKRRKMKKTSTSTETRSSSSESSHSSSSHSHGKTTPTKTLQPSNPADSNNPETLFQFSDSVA

MAPKAP-K2 [13] = test: Activation of MAPKAP-K2 in 293 cells; assay type: cell-based, human; conditions: 50 μM PD 98059 or 10 μM SB 203580
Method: as §2, §1

COc1cccc(-c2cc(=O)c3ccccc3o2)c1N [PD 98059]
activation of MAPKAP-K1a/b after 15 min of TNF stimulation (MAPKAP-K1a/b [1]): suppressed
NGF-induced activation of MAPK (MAPK): only partially suppresses
activation of MSK1 by TNF after 5 min (MSK1 [2]): unaffected
activation of MSK1 by TNF after 15 min (MSK1 [2]): partially blocked
NGF-induced activation of MSK1 (MSK1 [3]): not significantly affected
activation of MAPKAP-K1a/b by EGF and TPA (MAPKAP-K1a/b [4]): largely suppressed
UV-induced activation of transfected MSK1 (MSK1 [5]): unaffected
activation of transfected MSK1 by TPA (MSK1 [5]): prevented
activation of transfected wild type MSK1 by EGF, basic FGF and serum (MSK1 [5]; data not shown): prevented
activation of MAPKAP-K1 by FGF (MAPKAP-K1 [6]): abolished

Cn1cc(C2=C(c3cn(CCCSC(=N)N)c4ccccc34)C(=O)NC2=O)c2ccccc21 [Ro 318220]
inhibition of cyclic AMP dependent protein kinase [7]: not significantly inhibited
IC50 (PKC isoforms): 10 to 30 nM
IC50 (MAPKAP-K1a/b [8]): 10 to 30 nM
LPS-induced activation of MAPKAP-K2 (MAPKAP-K2 [9]): does not affect
inhibition of MAPKAP-K2 in vitro (MAPKAP-K2 [10]): does not significantly inhibit
LPS-induced activation of MAPKAP-K1 (MAPKAP-K1 [11]): does not affect
inhibition of MSK1 activity in vitro (MSK1 [12]): equally potent inhibitor; also recorded: reversible inhibitor

C[S+]([O-])c1ccc(-c2nc(-c3ccncc3)c(-c3ccc(F)cc3)[nH]2)cc1 (stereo not shown) [SB 203580]
activation of MSK1 by TNF after 5 min (MSK1 [2]): completely inhibited
activation of MSK1 by TNF after 15 min (MSK1 [2]): partially blocked
NGF-induced activation of MSK1 (MSK1 [3]): not significantly affected
activation of MAPKAP-K1a/b by EGF and TPA (MAPKAP-K1a/b [4]): but not by SB 203580
UV-induced activation of transfected MSK1 (MSK1 [5]): prevented
activation of transfected MSK1 by TPA (MSK1 [5]): but not by SB 203580
activation of MAPKAP-K2 by stressful stimuli (MAPKAP-K2 [13]): prevented
LPS-induced activation of MAPKAP-K2 (MAPKAP-K2 [9]): completely block
